Assay results taken from ChEMBL document CHEMBL4330128, “Discovery of two novel branched peptidomimetics containing endomorphin-2 and RF9 pharmacophores: Synthesis and neuropharmacological evaluation” (Bioorg Med Chem, 2019).
Active and inactive are the calls of the source. The calls are words filed in the database; no cut-off is given here. Where a SMILES comes first, the peptide text is derived from it. Side-chain parts run from the residue outwards. The star is where a group is joined. Adamantane1carbonyl = O=C(C12CC3CC(CC(C3)C1)C2)*

How the values were obtained:
[1] = system: Mus musculus; assay: Antinociceptive activity in Kunming mouse model of thermal-induced nociception assessed as increase in latency to tail withdrawal at 5 nmol, icv measured up to 60 mins by tail flick test; assay type: functional, organism-based
[2] = system: Mus musculus; assay: Antinociceptive activity in Kunming mouse model of thermal-induced nociception assessed as increase in latency to tail withdrawal at 10 nmol, icv measured up to 60 mins by tail flick test; assay type: functional, organism-based
[3] = biological target: T1, Neuropeptide FF receptor 1 (Homo sapiens, UniProt Q9GZQ6); assay: Antagonist activity at NPFF1 receptor (unknown origin) expressed in HEK293A cells assessed as reversal of […] induced inhibition of forskolin-stimulated cAMP accumulation measured after 30 mins; assay type: functional, cell-based
[4] = biological target: T2, Neuropeptide FF receptor 2 (Homo sapiens, UniProt Q9Y5X5); assay: Antagonist activity at NPFF2 receptor (unknown origin) expressed in HEK293A cells assessed as reversal of […] induced inhibition of forskolin-stimulated cAMP accumulation measured after 30 mins; assay type: functional, cell-based
[5] = system: N2a; assay: Effect on neurite outgrowth in mouse Neuro2a cells at 10 uM after 18 hrs by phase contrast microscopic analysis relative to control; assay type: cell-based
[6] = system: Mus musculus; assay: Antiallodynic activity in carrageenan-induced Kunming mouse model of mechanical hyperalgesia administered as intrathecal injection after 10 to 90 mins by Von Frey filament assay; assay type: functional
[7] = system: Mus musculus; assay: Antiallodynic activity in carrageenan-induced Kunming mouse model of mechanical hyperalgesia administered as intrathecal injection after 10 to 90 mins in presence of NPFF receptor antagonist RF9 by Von Frey filament assay; assay type: functional, organism-based
[8] = system: Mus musculus; assay: Antiallodynic activity in carrageenan-induced Kunming mouse model of mechanical hyperalgesia administered as intrathecal injection after 10 to 90 mins in presence of opioid receptor antagonist naloxone by Von Frey filament assay; assay type: functional, organism-based
[9] = system: Mus musculus; assay: Antinociceptive activity in Kunming mouse model of thermal-induced nociception assessed as increase in latency to tail withdrawal at 2 to 4 nmol, icv administered once daily for 5 days measured daily at 30 mins post dose by tail flick test; assay type: functional, organism-based
[10] = system: Mus musculus; assay: Antinociceptive activity in Kunming mouse model of thermal-induced nociception assessed as increase in latency to tail withdrawal at 2 nmol, icv administered once daily for 8 days measured daily at 30 mins post dose by tail flick test relative to control; assay type: functional
[11] = system: Mus musculus; assay: Antinociceptive activity in Kunming mouse model of thermal-induced nociception assessed as increase in latency to tail withdrawal at 4 nmol, icv administered once daily for 8 days measured daily at 30 mins post dose by tail flick test relative to control; assay type: functional
[12] = system: Mus musculus; assay: Antinociceptive activity in Kunming mouse model of thermal-induced nociception assessed as increase in latency to tail withdrawal at 2 to 4 nmol, icv administered once daily for 8 days measured on days 6 to 8 at 30 mins post dose in presence of NPFF receptor antagonist RF9 by tail flick test; assay type: functional, organism-based
[13] = Toxicity in Kunming mouse assessed as inhibition of gastrointestinal transit by measuring reduction in distance traveled by charcoal at 10 mg/kg, ip dosed 15 mins prior charcoal meal measured after 30 mins; assay type: organism-based; conditions: in vivo, 0.5 h
[14] = biological target: Mu-type opioid receptor (Homo sapiens, UniProt P35372); assay: Agonist activity at mu-opioid receptor (unknown origin) expressed in HEK293A cells assessed as inhibition of forskolin-induced cAMP accumulation measured after 30 mins; assay type: functional, cell-based
[15] = biological target: Delta-type opioid receptor (Homo sapiens, UniProt P41143); assay: Agonist activity at delta-opioid receptor (unknown origin) expressed in HEK293A cells assessed as inhibition of forskolin-induced cAMP accumulation measured after 30 mins; assay type: functional, cell-based
[16] = biological target: T2, Neuropeptide FF receptor 2; assay: Agonist activity at NPFF2 receptor (unknown origin) expressed in HEK293A cells assessed as inhibition of forskolin-stimulated cAMP accumulation measured after 30 mins; assay type: functional, cell-based
[17] = biological target: T2, Neuropeptide FF receptor 2; assay: Agonist activity at NPFF2 receptor (unknown origin) expressed in HEK293A cells assessed as inhibition of forskolin-stimulated cAMP accumulation measured after 30 mins relative to NPFF; assay type: functional, cell-based
[18] = biological target: Neuropeptide FF receptor 2 (Mus musculus) (UniProt Q924H0); assay: Antagonist activity at NPFF2 receptor in mouse Neuro2a cells assessed as inhibition of NPFF-induced neurite outgrowth by measuring neurite outgrowth at 10 uM after 18 hrs by phase contrast microscopic analysis (reference value: 24.05 +/- 1.19%); assay type: cell-based; set-up: scale not given: the % may be the effect or the level left
[19] = system: Mus musculus; assay: Antinociceptive activity in icv dosed Kunming mouse model of thermal-induced nociception assessed as increase in latency to tail withdrawal by tail flick test; assay type: functional
[20] = system: Mus musculus; assay: Antinociceptive activity in Kunming mouse model of thermal-induced nociception assessed as increase in latency to tail withdrawal at 20 nmol, icv measured up to 60 mins in presence of opioid receptor antagonist naloxone by tail flick test; assay type: functional, organism-based
[21] = system: Mus musculus; assay: Antinociceptive activity in Kunming mouse model of thermal-induced nociception assessed as increase in latency to tail withdrawal at 20 nmol, icv measured up to 60 mins in presence of mu-opioid receptor antagonist beta-FNA by tail flick test; assay type: functional, organism-based
[22] = system: Mus musculus; assay: Antinociceptive activity in Kunming mouse model of thermal-induced nociception assessed as increase in latency to tail withdrawal at 20 nmol, icv measured up to 60 mins in presence of kappa-opioid receptor antagonist nor-BNI by tail flick test; assay type: functional, organism-based
[23] = system: Mus musculus; assay: Antinociceptive activity in Kunming mouse model of thermal-induced nociception assessed as increase in latency to tail withdrawal at 20 nmol, icv measured up to 60 mins in presence of delta-opioid receptor antagonist naltrindole by tail flick test; assay type: functional, organism-based
[24] = system: Mus musculus; assay: Antinociceptive activity in Kunming mouse model of thermal-induced nociception assessed as increase in latency to tail withdrawal at 10 nmol, icv measured up to 60 mins in presence of NPFF receptor antagonist RF9 by tail flick test; assay type: functional, organism-based
[25] = Toxicity in Kunming mouse assessed as impairment of motor coordination at 20 nmol, icv measured after 10 to 40 mins by rotarod test; conditions: in vivo, icv_or_intrathecal
[26] = Toxicity in Kunming mouse assessed as impairment of motor coordination at 20 nmol, it measured after 10 to 40 mins by rotarod test; conditions: in vivo, icv_or_intrathecal
[27] = system: Mus musculus; assay: Antinociceptive activity in Kunming mouse model of thermal-induced nociception assessed as increase in latency to tail withdrawal at 10 to 20 nmol, icv administered once daily for 5 to 8 days measured daily at 30 mins post dose by tail flick test; assay type: functional, organism-based
[28] = system: Mus musculus; assay: Antinociceptive activity in Kunming mouse model of thermal-induced nociception assessed as increase in latency to tail withdrawal at 2 to 4 nmol, icv administered once daily for 8 days measured daily at 30 mins post dose in presence of NPFF receptor antagonist RF9 by tail flick test; assay type: functional, organism-based
[29] = Toxicity in Kunming mouse assessed as inhibition of gastrointestinal transit by measuring reduction in distance traveled by charcoal at 5 to 20 nmol, icv dosed 15 mins prior charcoal meal measured after 30 mins; assay type: organism-based; conditions: in vivo, icv_or_intrathecal, 0.5 h
[30] = biological target: T1, Neuropeptide FF receptor 1; assay: Agonist activity at NPFF1 receptor (unknown origin) expressed in HEK293A cells assessed as inhibition of forskolin-stimulated cAMP accumulation measured after 30 mins; assay type: functional, cell-based
[31] = biological target: Kappa-type opioid receptor (Homo sapiens) (UniProt P41145)
Description: Agonist activity at kappa-opioid receptor (unknown origin) expressed in HEK293A cells assessed as inhibition of forskolin-induced cAMP accumulation measured after 30 mins

[32] = Toxicity in Kunming mouse assessed as inhibition of gastrointestinal transit by measuring reduction in distance traveled by charcoal at 10 to 30 mg/kg, ip dosed 15 mins prior charcoal meal measured after 30 mins; assay type: organism-based; conditions: in vivo, 0.5 h
[33] = system: Mus musculus; assay: Antinociceptive activity in icv dosed Kunming mouse model of thermal-induced nociception assessed as increase in latency to tail withdrawal up to 60 mins radiant heat tail flick method; assay type: functional

Neuropeptide FF receptor 2 (Mus musculus), sequence (Q924H0 whole entry): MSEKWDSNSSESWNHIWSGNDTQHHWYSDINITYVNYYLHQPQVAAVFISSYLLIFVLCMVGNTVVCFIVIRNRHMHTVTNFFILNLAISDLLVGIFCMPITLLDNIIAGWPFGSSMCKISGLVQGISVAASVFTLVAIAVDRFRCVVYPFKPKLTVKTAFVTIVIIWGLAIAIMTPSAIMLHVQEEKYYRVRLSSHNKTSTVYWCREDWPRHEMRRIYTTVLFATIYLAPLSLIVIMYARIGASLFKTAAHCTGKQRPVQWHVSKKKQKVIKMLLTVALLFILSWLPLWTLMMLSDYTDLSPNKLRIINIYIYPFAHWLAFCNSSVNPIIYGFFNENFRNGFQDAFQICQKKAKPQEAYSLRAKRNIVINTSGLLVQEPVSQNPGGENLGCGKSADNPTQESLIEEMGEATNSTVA
Delta-type opioid receptor, sequence (P41143 whole entry): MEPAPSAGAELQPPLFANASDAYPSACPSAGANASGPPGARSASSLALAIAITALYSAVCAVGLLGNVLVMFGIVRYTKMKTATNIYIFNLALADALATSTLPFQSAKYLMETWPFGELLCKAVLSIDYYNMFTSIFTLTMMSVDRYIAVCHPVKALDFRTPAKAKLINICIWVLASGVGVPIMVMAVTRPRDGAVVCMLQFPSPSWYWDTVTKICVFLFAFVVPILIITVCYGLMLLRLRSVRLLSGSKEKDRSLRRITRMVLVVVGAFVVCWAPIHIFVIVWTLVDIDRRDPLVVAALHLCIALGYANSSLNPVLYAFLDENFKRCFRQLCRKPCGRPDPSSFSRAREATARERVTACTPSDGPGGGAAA
T2 sequence (Q9Y5X5 whole entry): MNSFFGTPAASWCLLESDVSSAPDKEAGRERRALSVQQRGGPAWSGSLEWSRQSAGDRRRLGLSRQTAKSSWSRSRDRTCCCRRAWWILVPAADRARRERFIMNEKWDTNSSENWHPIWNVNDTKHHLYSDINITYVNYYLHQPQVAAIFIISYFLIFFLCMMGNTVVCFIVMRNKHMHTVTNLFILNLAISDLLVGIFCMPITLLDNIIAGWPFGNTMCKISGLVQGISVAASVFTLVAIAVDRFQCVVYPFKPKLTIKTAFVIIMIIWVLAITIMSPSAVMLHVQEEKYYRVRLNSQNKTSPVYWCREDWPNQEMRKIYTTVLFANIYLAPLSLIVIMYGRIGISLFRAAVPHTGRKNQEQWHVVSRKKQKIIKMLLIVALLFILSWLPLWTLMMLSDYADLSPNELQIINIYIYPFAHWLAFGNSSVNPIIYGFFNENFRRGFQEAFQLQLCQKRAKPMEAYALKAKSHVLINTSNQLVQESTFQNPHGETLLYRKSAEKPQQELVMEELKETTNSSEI
Mu-type opioid receptor, sequence (P35372 whole entry): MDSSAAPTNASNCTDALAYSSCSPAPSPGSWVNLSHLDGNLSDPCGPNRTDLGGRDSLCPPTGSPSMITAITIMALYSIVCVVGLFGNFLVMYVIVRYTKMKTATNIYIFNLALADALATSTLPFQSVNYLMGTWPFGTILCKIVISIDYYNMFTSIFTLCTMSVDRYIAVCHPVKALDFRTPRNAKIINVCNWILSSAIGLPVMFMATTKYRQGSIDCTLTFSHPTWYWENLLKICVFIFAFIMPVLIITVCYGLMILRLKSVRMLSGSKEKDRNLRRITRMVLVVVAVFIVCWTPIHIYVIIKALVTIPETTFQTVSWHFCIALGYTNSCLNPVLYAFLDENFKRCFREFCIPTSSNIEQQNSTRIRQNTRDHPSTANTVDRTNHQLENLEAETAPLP
T1 sequence (Q9GZQ6 whole entry): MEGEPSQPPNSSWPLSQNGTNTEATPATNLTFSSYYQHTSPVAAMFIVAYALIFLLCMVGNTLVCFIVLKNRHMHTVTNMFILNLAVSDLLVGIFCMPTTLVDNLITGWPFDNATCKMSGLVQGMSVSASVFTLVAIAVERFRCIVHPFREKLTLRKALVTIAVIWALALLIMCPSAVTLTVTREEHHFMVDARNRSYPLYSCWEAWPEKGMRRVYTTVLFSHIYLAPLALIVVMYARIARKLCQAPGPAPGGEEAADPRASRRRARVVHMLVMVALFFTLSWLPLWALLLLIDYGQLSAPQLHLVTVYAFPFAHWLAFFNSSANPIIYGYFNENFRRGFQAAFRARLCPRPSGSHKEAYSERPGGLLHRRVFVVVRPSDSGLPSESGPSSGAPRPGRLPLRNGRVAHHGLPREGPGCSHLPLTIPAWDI
Kappa-type opioid receptor (Homo sapiens), sequence (P41145 whole entry): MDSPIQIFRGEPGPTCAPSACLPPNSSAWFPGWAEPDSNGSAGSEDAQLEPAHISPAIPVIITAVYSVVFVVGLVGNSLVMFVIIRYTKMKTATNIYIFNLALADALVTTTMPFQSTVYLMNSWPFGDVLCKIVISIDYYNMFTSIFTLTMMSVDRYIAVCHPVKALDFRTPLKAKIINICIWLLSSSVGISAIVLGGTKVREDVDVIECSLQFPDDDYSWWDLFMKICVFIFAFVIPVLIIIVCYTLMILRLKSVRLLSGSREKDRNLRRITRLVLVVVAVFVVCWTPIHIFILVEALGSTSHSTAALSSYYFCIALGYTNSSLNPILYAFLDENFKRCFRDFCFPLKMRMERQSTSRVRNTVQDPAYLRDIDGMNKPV

C=CCN1CC[C@]23c4c5ccc(O)c4O[C@H]2C(=O)CC[C@@]3(O)[C@H]1C5
Activity [1]: inactive

Oc1ccc2c3c1O[C@H]1c4[nH]c5c(c4C[C@@]4(O)[C@@H](C2)N(CC2CC2)CC[C@]314)C[C@@]1(O)[C@H]2Cc3ccc(O)c4c3[C@@]1(CCN2CC1CC1)[C@H]5O4
Activity [2]: inactive

Oc1ccc2c3c1O[C@H]1c4[nH]c5ccccc5c4C[C@@]4(O)[C@@H](C2)N(CC2CC2)CC[C@]314
Activity [2]: inactive

NC(=O)[C@H](Cc1ccccc1)NC(=O)[C@H](CCCN=C(N)N)NC(=O)C12CC3CC(CC(C3)C1)C2
IC50 [3]: 410 nM | IC50 [4]: 410 nM | Activity [5]: 12.41%

CN1CC[C@]23c4c5ccc(O)c4O[C@H]2[C@@H](O)C=C[C@H]3[C@H]1C5 [MORPHINE]
Activity [6]: Dose-dependent effect | ED50 [6]: 0.44 nmol | Activity [7]: Active | Activity [8]: inactive | Activity [9]: inactive | MPE [10]: 6.67% | MPE [11]: 9.88% | Activity [12]: Active | Activity [13]: Toxic

CC(C)C[C@H](NC(=O)[C@H](Cc1ccccc1)NC(=O)[C@H](C)N(C)C(=O)[C@@H]1CCCN1C(=O)[C@H](N)CC(N)=O)C(=O)N[C@@H](Cc1ccccc1)C(=O)N[C@@H](CCC(N)=O)C(=O)N1CCC[C@H]1C(=O)N[C@@H](CCC(N)=O)C(=O)N[C@@H](CCCNC(=N)N)C(=O)N[C@@H](Cc1ccccc1)C(N)=O
Activity [6]: Dose-dependent effect | ED50 [6]: 26.2 nmol | Activity [7]: inactive | Activity [8]: inactive

N=C(N)NCCC[C@H](NC(=O)C12CC3CC(CC(C3)C1)C2)C(=O)N[C@@H](Cc1ccccc1)C(=O)N[C@@H](CCCCNC(=O)[C@H](Cc1ccccc1)NC(=O)[C@H](Cc1ccccc1)NC(=O)[C@@H]1CCCN1C(=O)[C@@H](N)Cc1ccc(O)cc1)C(N)=O
EC50 [14]: 1900 nM | Emax [14]: 62% | Emax [15]: inactive | pEC50 [15]: inactive | IC50 [3]: 190 nM | inhibition [3]: Dose-dependent effect | IC50 [4]: 190 nM | EC50 [16]: 250 nM | Emax [16]: 31.3% | inhibition [16]: Dose-dependent effect | Emax [17]: 60% | Activity [18]: 14.1% | Activity [5]: 12.71% | ED50 [19]: 4.8 nmol | Activity [20]: inactive | Activity [21]: inactive | Activity [22]: Active | Activity [23]: Active | Activity [24]: Active | Activity [6]: Dose-dependent effect | ED50 [6]: 8.16 nmol | Activity [7]: inactive | Activity [8]: inactive | Activity [25]: Non-Toxic | Activity [26]: Non-Toxic | Activity [27]: Active | Activity [28]: Active | Activity [13]: Non-Toxic | Activity [29]: Non-Toxic | Emax [30]: inactive | pEC50 [30]: inactive | pEC50 [31]: inactive

COC(=O)/C=C/C(=O)N[C@@H]1CC[C@@]2(O)[C@H]3Cc4ccc(O)c5c4[C@@]2(CCN3CC2CC2)[C@H]1O5
Activity [2]: inactive

NC(=O)[C@H](Cc1ccccc1)NC(=O)[C@H](Cc1ccccc1)NC(=O)[C@@H]1CCCN1C(=O)[C@@H](N)Cc1ccc(O)cc1 [ENDOMORPHIN 2]
Emax [14]: 76.8% | Activity [5]: 16.49% | Activity [32]: Non-Toxic | ED50 [33]: 6.88 nmol

N=C(N)NCCC[C@H](NC(=O)C12CC3CC(CC(C3)C1)C2)C(=O)N[C@@H](Cc1ccccc1)C(=O)NCCCC[C@H](NC(=O)[C@H](Cc1ccccc1)NC(=O)[C@H](Cc1ccccc1)NC(=O)[C@@H]1CCCN1C(=O)[C@@H](N)Cc1ccc(O)cc1)C(N)=O (H-YPFFK([Phe-Arg-Adamantane1carbonyl])-NH2)
EC50 [14]: 1770 nM | Emax [14]: 54.3% | Emax [15]: 55.9% | EC50 ([15]; read-out: EC50): 2240 nM | EC50 ([15]; read-out: pEC50 (converted)): 2000 nM | IC50 [3]: 520 nM | inhibition [3]: Dose-dependent effect | IC50 [4]: 520 nM | EC50 [16]: 170 nM | Emax [16]: 26.6% | inhibition [16]: Dose-dependent effect | Emax [17]: 50.9% | Activity [18]: 10.3% | Activity [5]: 11.88% | ED50 [19]: 6.27 nmol | Activity [20]: inactive | Activity [24]: Active | Activity [6]: Dose-dependent effect | ED50 [6]: 9.25 nmol | Activity [7]: inactive | Activity [8]: inactive | Activity [25]: Non-Toxic | Activity [26]: Non-Toxic | Activity [27]: Active | Activity [28]: Active | Activity [13]: Non-Toxic | Activity [29]: Non-Toxic | Emax [30]: inactive | pEC50 [30]: inactive | pEC50 [31]: inactive

N=C(N)NCCC[C@H](NC(=O)C12CC3CC(CC(C3)C1)C2)C(=O)N[C@@H](Cc1ccccc1)C(N)=O
inhibition [3]: Dose-dependent effect | Activity [18]: 12.9% | Activity [2]: inactive
